Columns and labels:
[1] = system: M(IL-4) polarization of BMDMs; experiment: Flow cytometry of IL-4-associated cell surface markers in BMDMs; assay type: cell-based, mouse
Method: For all gene expression and flow cytometry experiments described below, day 6 BMDM were plated at 3×10^5 cell/well in 12-well plates. The next day, cells were treated with appropriate compounds (and duration as indicated in figures and below) in DMEM supplemented with 5% FBS, 2 mM L-glutamine, 100 units/mL, 100 μg/mL penicillin/streptomycin, 500 μM of sodium pyruvate and 5% v/v conditioned media containing macrophage colony stimulating factor (M-CSF).
For flow cytometry experiments involving etomoxir (FIG. 1G, FIG. 2A, FIG. 2D, FIG. 3A, FIG. 3B, FIG. 3G, FIG. 3H): BMDMs were mock-treated (media replacement only) or treated with 20 ng/mL of IL-4±3 μM or 200 μM of etomoxir for 48 hr. When measuring expression of M(IL-4)-associated genes in response to etomoxir (FIG. 1H, FIG. 2B), BMDMs were mock-treated or treated with 20 ng/mL of IL4±etomoxir as indicated for 24 hr.
For experiments involving respiratory chain inhibitors: BMDMs were mock-treated (media replacement only) or treated with 20 ng/mL of IL4±1.2 μM oligomycin (Oligo), 200 nM rotenone (Rot), 200 nM antimycin A (AntiA), 100 nM piericidin A (PierA), or 5 μM carboxyatractylate (CAT) for either 24 (FIG. 4G, FIG. 4H, FIG. 6G) or 48 hr (FIG. 4F, FIG. 7D). All inhibitors were given as co-treatments simultaneously with IL-4.
For experiments involving CoA supplementation (FIG. 10A, FIG. 10B, FIG. 10C, FIG. 10D, FIG. 10E, FIG. 9C, FIG. 9D): BMDMs were mock-treated (media replacement only) or treated with 20 ng/mL of IL4±etomoxir (concentration indicated in figures)±CoA (concentration indicated in figures) for 48 hr. Etomoxir and CoA were given as co-treatments simultaneously with IL-4.
Prior to FACS analysis, BMDMs were detached using 350 μL of Accutase, followed by two washes with FACS buffer (PBS+1% (v/v) BSA+0.05% (w/v) sodium azide). Anti-mouse CD16/32 antibody was used at a dilution of 1:500, while all other antibodies were used at a dilution of 1:250. All flow cytometry data were captured using BD FACSVerse flow cytometer and analyzed using the FlowJo X 10.0.7r2 software. In all, 2×104 live events were acquired for each sample (gated on DAPIneg). For analysis, CD206+/CD71+ and CD206+/CD301+ populations were gated based on Fluorescence Minus One (FMO) controls.

[2] = system: adenine nucleotide translocase (ANT); experiment: ATP hydrolysis in isolated mitochondria, intact or alamethicin-permeabilized; assay type: biochemical, rat
Description: ATP hydrolysis in isolated mitochondria (McQuaker, S. J., Quinlan, C. L., Caldwell, S. T., Brand, M. D., and Hartley, R. C. (2013). A prototypical small molecule modulator uncouples mitochondria in response to endogenous hydrogen peroxide production. Chembiochem. 14, 993-1000; Divakaruni, A. S., Andreyev, A. Y., Rogers, G. W., and Murphy, A. N. (2017a) In situ measurements of mitochondrial matrix enzyme activities using plasma and mitochondrial membrane permeabilization agents. Anal. Biochem. 17, 30385-8) was performed in MAS buffer, and stimulated by respiratory chain inhibition (1 μM rotenone and 2 μM antimycin A) followed by addition of excess ATP (25 mM) and uncoupler (1 μM FCCP). Hydrolysis was inhibited by injection of either oligomycin (3 ng/mg mitochondrial protein) or carboxyatractylo side (7.5 ng/mg mitochondrial protein). Rates of extracellular acidification (ECAR, in mpH/min) were converted to proton production rates (PPR, in pmol H+/min) by determining the buffer capacity with sequential injections of HCl and H2SO4 (Mookerjee, S. A., Goncalves, R. L., Gerencser, A. A., Nicholls, D. G., and Brand, M. D. (2015). The contributions of respiration and glycolysis to extracellular acid production. Biochim et Biophys Acta. 1847, 171-81). 10 μg/mL alamethicin was used to permeabilize the mitochondrial inner membrane (1 μg/mg mitochondrial protein).

A549 cells = experiment: Palmitate-driven respiration in intact A549 cells (Seahorse); assay type: cell-based; conditions: intact A549, albumin-buffered palmitate
Method: All respirometry studies were conducted in either a Seahorse XF96 or XFe96 Analyzer. All experiments were conducted at 37° C., and at pH 7.4 (intact cells) or 7.2 (permeabilized cells and isolated mitochondria). Calculation of respiratory parameters was made according to standard protocols (Divakaruni, A. S., Paradyse, A., Ferrick, D. A., Murphy, A. N., and Jastroch, M. (2014a) Analysis and interpretation of microplate-based oxygen consumption and pH data. Meth. Enzym 547, 509-54), and all rates were corrected for non-mitochondrial respiration/background signal by subtracting the oxygen consumption rate insensitive to rotenone plus antimycin A.
Palmitate oxidation in intact cells (FIG. 1A, FIG. 1B) was assessed by measuring palmitate-driven respiration that was sensitive to low concentrations of etomoxir (Rogers, G. W., Nadanaciva, S., Swiss, R., Divakaruni, A. S., and Will, Y. (2014) Assessment of fatty acid beta oxidation in cells and isolated mitochondria. Curr. Protoc. Toxicol. 60, 25.3, 1-19). […] Respiration was measured under basal conditions as well as after injection of 2 μM oligomycin, two sequential additions of 1 μM FCCP, followed by 0.2 μM rotenone with 1 μM antimycin A. Etomoxir was added to the assay medium 30 min. prior to measurements of basal respiratory rates.

`CCOC(=O)[C@@]1(CCCCCCOc2ccc(Cl)cc2)CO1` [etomoxir] was tested, and the “CD206+/CD71+ expression in WT and Cpt1a-/- macrophages” value ([1]; 3 μM etomoxir) was “lack of an effect”, the “expression levels of IL-4-induced CD206, CD71, CD301” value ([1]; 3 μM etomoxir, IL-4 20 ng/mL) was “no effect” and the “CD206+/CD71+ expression in WT and Cpt1a-/- macrophages” value ([1]; 200 μM etomoxir) was “robust block”. The “population of CD206+/CD71+ cells” value ([1]; 200 μM etomoxir, IL-4) was “strongly reduced”, the “population of CD301+ cells” value ([1]; 200 μM etomoxir, IL-4) was “little effect” and the “population of CD206+/CD71+ cells” value ([1]; 500 μM CoA, etomoxir 3-100 μM) was “proportionally decreased”. The “concentration at which significant changes in macrophage polarization were observed” value ([1]; CD206+/CD71+, IL-4) was over 100 µM, the ATP hydrolysis ([2]; alamethicin-permeabilized mitochondria) was “no effect” and the ATP hydrolysis ([2]; intact isolated mitochondria, etomoxir 100 μM, CAT 7.5 ng/mg, oligomycin 3 ng/mg) was “inhibited ATP hydrolysis”. For the same compound, the “half-maximal inhibitory concentration (EC50) for uncoupler-stimulated respiration” value (A549 cells) was “sub-micromolar”.

— patent US11813277B2, “Methods and agents for modulating inflammation” (The Regents of the University of California, priority 2018, dated 2023)
